The text below walks through data of patent publication US20090004185A1, “AMINO-SUBSTITUTED QUINAZOLINE DERIVATIVES AS INHIBITORS OF BETA-CATENIN/TCF-4 PATHWAY AND CANCER TREATMENT AGENTS” (WYETH, priority 2007, published 2009).

SMILES strings stand for the structures.

The test system of experiment [1] is SV40-Luc. The experiment in a line: SV40-Luc control luciferase reporter assay, SV 5A8 cell line (SV40-Luc and SV40-R-Luc), control for non-specific inhibitors. The following applies: Homo sapiens, SV5A8, 24 h, SV 5A8 cells derived from SW480; 24 hours of incubation with compound; ratio Firefly/Renilla luciferase. It counts as cell-based, human. The gist of the method:
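Cells were plated and, 20-24 hours later, treated with titrated compound (0.316% DMSO final). After 24 hours they were lysed or given Dual-Glo reagent, and firefly then Renilla luminescence was measured. IC50s came from firefly/Renilla ratios as % of control.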

Experiment [2] relates to β-catenin/Tcf-4. The experiment in a line: cells. It counts as cell-based. The following applies: Homo sapiens, 24 hours of incubation with compound, ratio Firefly/Renilla luciferase. Put shortly:
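SW480-derived lines with integrated reporters (Tcf-4-driven firefly luciferase; SV40 firefly as specificity control; SV40 Renilla for cell number/toxicity), treated 24 hours with titrated compounds, final 0.316% DMSO. Dual-luciferase read-out; firefly/Renilla ratio as % of control, duplicate plates, IC50 (nM) from curve fit.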

Where [3] appears, read: SW480, 24 h, Tcf 33.13 cells derived from SW480.
Setting [4] is: Tcf22C11, 24 h, Tcf 22C11 cells derived from SW480.

Take `CN(C)c1nc(NCc2ccc(NC(=O)c3ccc(F)cc3)cc2)c2ccc(-c3ccccc3C=O)cc2n1` [Example 98, N-[4-({[2-(dimethylamino)-7-(2-formylphenyl)quinazolin-4-yl]amino}methyl)phenyl]-4-fluorobenzamide]: the values for the IC50 in experiment [1], in experiment [2] (setting [3]) and in experiment [2] (setting [4]) were above 19200 nM, 2960 nM and above 2410 nM, respectively.
`CN(C)c1nc(NCc2ccc(NC(=O)c3ccc(F)cc3)cc2)c2ccc(-c3ccc(C=O)cc3)cc2n1` [Example 99, N-[4-({[2-(dimethylamino)-7-(4-formylphenyl)quinazolin-4-yl]amino}methyl)phenyl]-4-fluorobenzamide]: the IC50 in experiment [1] was above 17900 nM; in experiment [2] (setting [3]), 2680 nM; in experiment [2] (setting [4]), 6820 nM.
On to `CN(C)c1nc(NCc2ccc(NC(=O)c3ccc(F)cc3)cc2)c2ccc(-c3cccnc3Cl)cc2n1` [Example 100, N-[4-({[7-(2-chloropyridin-3-yl)-2-(dimethylamino)quinazolin-4-yl]amino}methyl)phenyl]-4-fluorobenzamide], for which the IC50 in experiment [1] was above 17700 nM; in experiment [2] (setting [3]), 541 nM; in experiment [2] (setting [4]), 548 nM.
With `CN(C)c1nc(NCc2ccc(NC(=O)c3ccc(F)cc3)cc2)c2ccc(-c3cc4ccccc4o3)cc2n1` [Example 101, N-[4-({[7-(1-benzofuran-2-yl)-2-(dimethylamino)quinazolin-4-yl]amino}methyl)phenyl]-4-fluorobenzamide], the IC50 in experiment [1] was above 17600 nM; in experiment [2] (setting [3]), 2950 nM; in experiment [2] (setting [4]), 2250 nM.
For `CN(C)c1nc(NCc2ccc(NC(=O)c3ccc(F)cc3)cc2)c2ccc(/C=C/C(C)(C)C)cc2n1` [Example 102, N-{4-[({2-(dimethylamino)-7-[(1E)-3,3-dimethylbut-1-en-1-yl]quinazolin-4-yl}amino)methyl]phenyl}-4-fluorobenzamide], in that order: above 9360 nM, 825 nM and 1340 nM.
For `CCCC/C=C/c1ccc2c(NCc3ccc(NC(=O)c4ccc(F)cc4)cc3)nc(N(C)C)nc2c1` [Example 103, N-{4-[({2-(dimethylamino)-7-[(1E)-hex-1-en-1-yl]quinazolin-4-yl}amino)methyl]phenyl}-4-fluorobenzamide], the IC50 in experiment [1] is above 4680 nM; in experiment [2] (setting [3]), 429 nM; in experiment [2] (setting [4]), 615 nM.
On to `CN(C)c1nc(NCc2ccc(NC(=O)c3ccc(F)cc3)cc2)c2ccc(C3CC3)cc2n1` [Example 104, N-[4-({[7-cyclopropyl-2-(dimethylamino)quinazolin-4-yl]amino}methyl)phenyl]-4-fluorobenzamide], for which the IC50 in experiment [1] was above 2540 nM; in experiment [2] (setting [3]), 666 nM; in experiment [2] (setting [4]), 1010 nM.
Turning to `C[C@H](Nc1nc(N(C)C)nc2cc(I)ccc12)c1ccc(NC(=O)c2ccc(Cl)nc2)cc1` [Example 105, 6-chloro-N-[4-((1S)-1-{[2-(dimethylamino)-7-iodoquinazolin-4-yl]amino}ethyl)phenyl]nicotinamide], the results for the IC50 in experiment [1], in experiment [2] (setting [3]) and in experiment [2] (setting [4]) were above 8210 nM, 1470 nM and 3780 nM, respectively.
In the case of `C=Cc1ccc2c(N[C@@H](C)c3ccc(NC(=O)c4ccc(Cl)nc4)cc3)nc(N(C)C)nc2c1` [Example 106, 6-chloro-N-[4-((1S)-1-{[2-(dimethylamino)-7-vinylquinazolin-4-yl]amino}ethyl)phenyl]nicotinamide], the figures for the half-inhibitory concentration (IC50) in experiment [1], in experiment [2] (setting [3]) and in experiment [2] (setting [4]) were above 9820 nM, 393 nM and 551 nM, respectively.
As for `C/C=C/c1ccc2c(N[C@@H](C)c3ccc(NC(=O)c4ccc(Cl)nc4)cc3)nc(N(C)C)nc2c1` [Example 107, 6-chloro-N-{4-[(1S)-1-({2-(dimethylamino)-7-[(1E)-prop-1-en-1-yl]quinazolin-4-yl}amino)ethyl]phenyl}nicotinamide], the IC50 was above 4780 nM in experiment [1], 336 nM in experiment [2] (setting [3]) and 414 nM in experiment [2] (setting [4]).
On to `C#Cc1ccc2c(NCc3ccc(NC(=O)c4ccc(F)cc4)cc3)nc(N(C)C)nc2c1` [Example 108, N-[4-({[2-(dimethylamino)-7-ethynylquinazolin-4-yl]amino}methyl)phenyl]-4-fluorobenzamide], for which the figures for the IC50 in experiment [1], in experiment [2] (setting [3]) and in experiment [2] (setting [4]) were above 5250 nM, 236 nM and 508 nM, respectively.
For `CN(C)c1nc(NCc2ccc(NC(=O)c3ccc(Cl)nc3)cc2)c2ccc(I)cc2n1` [Example 110, 6-chloro-N-[4-({[2-(dimethylamino)-7-iodoquinazolin-4-yl]amino}methyl)phenyl]nicotinamide], the IC50 in experiment [1] is above 16800 nM; in experiment [2] (setting [3]), 1190 nM; in experiment [2] (setting [4]), 1760 nM.
`C=Cc1ccc2c(NCc3ccc(NC(=O)c4ccc(Cl)nc4)cc3)nc(N(C)C)nc2c1` [Example 111, 6-chloro-N-[4-({[2-(dimethylamino)-7-vinylquinazolin-4-yl]amino}methyl)phenyl]nicotinamide]: the IC50 in experiment [1] was above 2520 nM; in experiment [2] (setting [3]), 181 nM; in experiment [2] (setting [4]), 238 nM.
On to `C/C=C/c1ccc2c(NCc3ccc(NC(=O)c4ccc(Cl)nc4)cc3)nc(N(C)C)nc2c1` [Example 112, 6-chloro-N-{4-[({2-(dimethylamino)-7-[(1E)-prop-1-en-1-yl]quinazolin-4-yl}amino)methyl]phenyl}nicotinamide], for which the IC50 was above 4910 nM in experiment [1], 118 nM in experiment [2] (setting [3]) and 249 nM in experiment [2] (setting [4]).
Take `CN(C)c1nc(NCc2ccc(NC(=O)c3ccc(F)cc3)cc2)c2ccccc2n1` [Example 113, N-[4-({[2-(dimethylamino)quinazolin-4-yl]amino}methyl)phenyl]-4-fluorobenzamide]: the IC50 was above 3010 nM in experiment [1], 766 nM in experiment [2] (setting [3]) and 1490 nM in experiment [2] (setting [4]).
Take `O=C(Nc1ccc(CNc2nc(NC3CCC3)nc3ccccc23)cc1)c1ccc(F)cc1` [Example 115, N-[4-({[2-(cyclobutylamino)quinazolin-4-yl]amino}methyl)phenyl]-4-fluorobenzamide]: the IC50 in experiment [1] was above 2830 nM; in experiment [2] (setting [3]), 991 nM; in experiment [2] (setting [4]), 1380 nM.
As to `CN1CCN(c2nc(NCc3ccc(NC(=O)c4ccc(F)cc4)cc3)c3ccccc3n2)CC1` [Example 116, 4-fluoro-N-[4-({[2-(4-methylpiperazin-1-yl)quinazolin-4-yl]amino}methyl)phenyl]benzamide], the figures for the IC50 in experiment [1], in experiment [2] (setting [3]) and in experiment [2] (setting [4]) were above 21300 nM, 3040 nM and 3440 nM, respectively.
As for `O=C(Nc1ccc(CNc2nc(N3CCOCC3)nc3ccccc23)cc1)c1ccc(F)cc1` [Example 117, 4-fluoro-N-(4-{[(2-morpholin-4-ylquinazolin-4-yl)amino]methyl}phenyl)benzamide], the IC50 in experiment [1] was above 21900 nM; in experiment [2] (setting [3]) it was 4480 nM; in experiment [2] (setting [4]) it was 7170 nM.
As for `CCNc1nc(NCc2ccc(NC(=O)c3ccc(F)cc3)cc2)c2ccccc2n1` [Example 118, N-[4-({[2-(ethylamino)quinazolin-4-yl]amino}methyl)phenyl]-4-fluorobenzamide], the IC50 in experiment [1] is above 3010 nM; in experiment [2] (setting [3]), 588 nM; in experiment [2] (setting [4]) it was 942 nM.
Regarding `O=C(Nc1ccc(CNc2nc(N3CCCC3)nc3ccccc23)cc1)c1ccc(F)cc1` [Example 119, 4-fluoro-N-(4-{[(2-pyrrolidin-1-ylquinazolin-4-yl)amino]methyl}phenyl)benzamide], the IC50 in experiment [1] was above 2830 nM; in experiment [2] (setting [3]) it was 1270 nM; in experiment [2] (setting [4]) it was 1740 nM.
With `O=C(Nc1ccc(CNc2nc(NC3CCCC3)nc3ccccc23)cc1)c1ccc(F)cc1` [Example 120, N-[4-({[2-(cyclopentylamino)quinazolin-4-yl]amino}methyl)phenyl]-4-fluorobenzamide], the IC50 in experiment [1] was above 1370 nM; in experiment [2] (setting [3]) it was 795 nM; in experiment [2] (setting [4]), 850 nM.
With `CCN(CC)c1nc(NCc2ccc(NC(=O)c3ccc(F)cc3)cc2)c2ccccc2n1` [Example 122, N-[4-({[2-(diethylamino)quinazolin-4-yl]amino}methyl)phenyl]-4-fluorobenzamide], the IC50 is above 11300 nM in experiment [1], 1260 nM in experiment [2] (setting [3]) and 2290 nM in experiment [2] (setting [4]).
Taken in the same sequence, the figures for `O=C(Nc1ccc(CNc2nc(N3CCCCC3)nc3ccccc23)cc1)c1ccc(F)cc1` [Example 123, 4-fluoro-N-(4-{[(2-piperidin-1-ylquinazolin-4-yl)amino]methyl}phenyl)benzamide] were above 11000 nM, 2930 nM and 5850 nM.
As to `O=C(Nc1ccc(CNc2nc(NCc3ccco3)nc3ccccc23)cc1)c1ccc(F)cc1` [Example 124, 4-fluoro-N-{4-[({2-[(2-furylmethyl)amino]quinazolin-4-yl}amino)methyl]phenyl}benzamide], the IC50 in experiment [1] was above 1340 nM; in experiment [2] (setting [3]), 332 nM; in experiment [2] (setting [4]) it was 674 nM.
For `O=C(Nc1ccc(CNc2nc(NC3CCCCC3)nc3ccccc23)cc1)c1ccc(F)cc1` [Example 125, N-[4-({[2-(cyclohexylamino)quinazolin-4-yl]amino}methyl)phenyl]-4-fluorobenzamide], the IC50 in experiment [1] is above 1330 nM; in experiment [2] (setting [3]), 364 nM; in experiment [2] (setting [4]) it was 1580 nM.
As for `O=C(O)CNc1nc(NCc2ccc(NC(=O)c3ccc(F)cc3)cc2)c2ccccc2n1` [Example 127, N-[4-({4-[(4-fluorobenzoyl)amino]benzyl}amino)quinazolin-2-yl]glycine], the IC50 in experiment [1], in experiment [2] (setting [3]) and in experiment [2] (setting [4]) was above 22400 nM in each case.
